Source: patent US6497900B2, “Effervescent base” (priority 1997, dated 2002)

Assay: Breakdown of acid-sensitive active substances in the effervescent system
Format: physicochemical
Conditions: in the effervescent system according to the invention, also in a stress situation

- tendency of active substance to break down and form decomposition products: substantially lower tendency
Compound: NC(N)=Nc1nc(CSCCC(N)=NS(N)(=O)=O)cs1 [famotidine]
